Assay results as given in PubChem BioAssay AID328 (DTP/NCI, 2004).
Inconclusive results and toxic doses are left out. Rule for the calls: active = survival T/C of 150% or more; inactive = T/C below 125% in these data.

Tested on: BDF1 mice, P388 leukemia ip, median survival T/C
Experiment: NCI In Vivo Anticancer Drug Screen. Data for tumor model P388 Leukemia (intraperitoneal) in B6D2F1 (BDF1) mice
Conditions: endpoint: median survival time, higher = longer survival
Procedure, shortened: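 Compound-treated tumour-bearing mice were compared with vehicle-treated controls. Survival was recorded, and the value is the treated-group measurement divided by the control-group measurement (T/C).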

[1] = dose: 100.0 mg/kg/injection, schedule: Q04DX003 (ip), vehicle: saline with Tween-80
[2] = dose: 200.0 mg/kg/injection, schedule: Q04DX003 (ip), vehicle: saline with Tween-80
[3] = dose: 400.0 mg/kg/injection, schedule: Q04DX003 (ip), vehicle: saline with Tween-80
[4] = dose: 100.0 mg/kg/injection, schedule: Q04DX003 (ip), vehicle: saline
[5] = dose: 200.0 mg/kg/injection, schedule: Q04DX003 (ip), vehicle: saline
[6] = dose: 400.0 mg/kg/injection, schedule: Q04DX003 (ip), vehicle: saline
[7] = dose: 50.0 mg/kg/injection, schedule: Q01DX009 (ip), vehicle: saline with Tween-80
[8] = dose: 100.0 mg/kg/injection, schedule: Q01DX009 (ip), vehicle: saline with Tween-80
[9] = dose: 200.0 mg/kg/injection, schedule: Q01DX009 (ip), vehicle: saline with Tween-80
[10] = dose: 25.0 mg/kg/injection, schedule: Q04DX003 (ip), vehicle: saline with Tween-80

Measured: T/C

C1=CC2CC1C1CSCC21 (configuration not stated)
inactive: dose: 0.03 mg/kg/injection, schedule: Q04DX003 (ip), vehicle: saline 100 % of control | dose: 0.06 mg/kg/injection, schedule: Q04DX003 (ip), vehicle: saline 91 % of control | dose: 0.13 mg/kg/injection, schedule: Q04DX003 (ip), vehicle: saline 95 % of control | dose: 0.19 mg/kg/injection, schedule: Q01DX009 (ip), vehicle: saline 95 % of control | dose: 0.27 mg/kg/injection, schedule: Q04DX003 (ip), vehicle: saline 100 % of control | dose: 0.39 mg/kg/injection, schedule: Q01DX009 (ip), vehicle: saline 104 % of control

CN(C)c1ccc(/C=N/Nc2ncnc3nc[nH]c23)cc1
inactive: [1] 103 % of control | [2] 96 % of control | [3] 103 % of control

CCCCCCCCCCCCCCCC(=O)Oc1ccc(/C(CC)=C(/CC)c2ccc(OC(=O)CCCCCCCCCCCCCCC)cc2)cc1
inactive: [1] 90 % of control | [2] 89 % of control | [3] 89 % of control

CC(=O)CC(C)=O.CC(=O)CC(C)=O.CC(=O)CC(C)=O.[Cr]
inactive: [4] 90 % of control | [5] 90 % of control | [6] 90 % of control

CC(/C=N/N=C(N)N)=N\NC(N)=S
inactive: [7] 96 % of control | [8] 116 % of control | [9] 107 % of control

C#CC(c1ccccc1)(c1ccccc1)n1ccnc1
inactive: [7] 98 % of control | [8] 100 % of control | [9] 98 % of control

Cc1ccc(S(=O)(=O)N2CCC(=O)c3ccc(Cl)cc32)cc1
inactive: dose: 100.0 mg/kg/injection, schedule: Q04DX003 (ip), vehicle: Klucel (hydroxypropylcellulose) (HPC) 100 % of control | dose: 200.0 mg/kg/injection, schedule: Q01DX009 (ip), vehicle: Klucel (hydroxypropylcellulose) (HPC) 100 % of control | dose: 200.0 mg/kg/injection, schedule: Q04DX003 (ip), vehicle: Klucel (hydroxypropylcellulose) (HPC) 104 % of control | dose: 400.0 mg/kg/injection, schedule: Q01DX009 (ip), vehicle: Klucel (hydroxypropylcellulose) (HPC) 95 % of control | dose: 400.0 mg/kg/injection, schedule: Q04DX003 (ip), vehicle: Klucel (hydroxypropylcellulose) (HPC) 104 % of control

COC(=O)c1c(C)cc(OC(=O)c2c(C)c(Cl)c(O)c(Cl)c2O)cc1O
inactive: dose: 1.25 mg/kg/injection, schedule: Q01DX009 (ip), vehicle: Klucel (hydroxypropylcellulose) (HPC) 91 % of control | dose: 2.5 mg/kg/injection, schedule: Q01DX009 (ip), vehicle: Klucel (hydroxypropylcellulose) (HPC) 114 % of control | dose: 5.0 mg/kg/injection, schedule: Q01DX009 (ip), vehicle: Klucel (hydroxypropylcellulose) (HPC) 101 % of control | dose: 10.0 mg/kg/injection, schedule: Q01DX009 (ip), vehicle: Klucel (hydroxypropylcellulose) (HPC) 108 % of control | dose: 20.0 mg/kg/injection, schedule: Q01DX009 (ip), vehicle: Klucel (hydroxypropylcellulose) (HPC) 97 % of control

O=Nc1c(N=O)c(N=O)c(N=O)c(N=O)c1N=O
inactive: dose: 1.25 mg/kg/injection, schedule: Q01DX010 (ip), vehicle: saline 90 % of control | dose: 2.5 mg/kg/injection, schedule: Q01DX010 (ip), vehicle: saline 100 % of control | dose: 5.0 mg/kg/injection, schedule: Q01DX010 (ip), vehicle: saline 100 % of control | dose: 10.0 mg/kg/injection, schedule: Q01DX010 (ip), vehicle: saline 95 % of control | dose: 80.0 mg/kg/injection, schedule: Q01DX010 (ip), vehicle: saline 104 % of control

CC1CN(Cc2ccc([N+](=O)[O-])cc2)CC(C)N1N (configuration not stated)
inactive: dose: 3.12 mg/kg/injection, schedule: Q04DX003 (ip), vehicle: saline with Tween-80 96 % of control | dose: 6.25 mg/kg/injection, schedule: Q04DX003 (ip), vehicle: saline with Tween-80 116 % of control | dose: 12.5 mg/kg/injection, schedule: Q04DX003 (ip), vehicle: saline with Tween-80 107 % of control | [10] 107 % of control

Cc1cc(N(CCO)CCO)c2ccc3cc4ccccc4cc3c2n1
inactive: [7] 119 % of control | [8] 116 % of control | [9] 94 % of control

Cc1ccc(NC(=O)Nc2ccccc2Cl)cc1Cl
inactive: [4] 104 % of control | [5] 95 % of control | [6] 95 % of control

CCCN(CCC)CC(C)O (configuration not stated)
inactive: dose: 50.0 mg/kg/injection, schedule: Q04DX003 (ip), vehicle: saline 109 % of control | [4] 100 % of control | [5] 95 % of control

O=S1(=O)CCNNCC1
inactive: dose: 25.0 mg/kg/injection, schedule: Q01DX001 (ip), vehicle: saline 110 % of control | dose: 50.0 mg/kg/injection, schedule: Q01DX001 (ip), vehicle: saline 105 % of control | dose: 100.0 mg/kg/injection, schedule: Q01DX001 (ip), vehicle: saline 120 % of control | dose: 200.0 mg/kg/injection, schedule: Q01DX001 (ip), vehicle: saline 110 % of control

CCOC(=O)c1cnn2c(SC)ncnc12
inactive: dose: 12.5 mg/kg/injection, schedule: Q01DX009 (ip), vehicle: saline with Tween-80 99 % of control | dose: 25.0 mg/kg/injection, schedule: Q01DX009 (ip), vehicle: saline with Tween-80 111 % of control | [10] 109 % of control | [7] 101 % of control | dose: 50.0 mg/kg/injection, schedule: Q04DX003 (ip), vehicle: saline with Tween-80 100 % of control | [8] 99 % of control | [1] 109 % of control

NC(=O)C(N)CCSCC(=O)O (configuration not stated)
inactive: dose: 50.0 mg/kg/injection, schedule: Q01DX009 (ip), vehicle: saline 88 % of control | dose: 100.0 mg/kg/injection, schedule: Q01DX009 (ip), vehicle: saline 91 % of control | dose: 200.0 mg/kg/injection, schedule: Q01DX009 (ip), vehicle: saline 94 % of control

CC(=O)OCCN1c2ccccc2Sc2cnccc21
inactive: [1] 104 % of control | [2] 90 % of control | [3] 95 % of control

Cc1ccc(S(=O)CC(Cl)c2ccccc2)cc1 (configuration not stated)
inactive: dose: 50.0 mg/kg/injection, schedule: Q01DX009 (ip), vehicle: other 105 % of control | dose: 100.0 mg/kg/injection, schedule: Q01DX009 (ip), vehicle: other 106 % of control | dose: 200.0 mg/kg/injection, schedule: Q01DX009 (ip), vehicle: other 100 % of control

CC(=O)OCC(=O)[C@@]1(O)CC[C@H]2[C@@H]3CCC4=CC(=O)C=C[C@]4(C)[C@@]3(F)[C@@H](O)C[C@@]21C
inactive: dose: 12.5 mg/kg/injection, schedule: Q01DX009 (ip), vehicle: saline sonified 104 % of control | dose: 25.0 mg/kg/injection, schedule: Q01DX009 (ip), vehicle: saline sonified 109 % of control | dose: 50.0 mg/kg/injection, schedule: Q01DX009 (ip), vehicle: saline sonified 100 % of control
